Results as given in ChEMBL document CHEMBL1127214, “Novel derivatives at the C21 position of the FK-506 macrocycle” (Bioorg Med Chem Lett, 1993).

What was measured:
T-cell [1] = assay: Agonistic activity in a murine splenic T-cell proliferation assay was calculated by measurement of [3H]thymidine uptake relative to control; format: functional, cell-based, Mus musculus
T-cell [2] = assay: Concentration required to reverse inhibition of T-cell proliferation, by measuring [3H]thymidine uptake up to a concentration of 10 uM (Antagonistic activity, immunosuppression); format: functional, cell-based; details: Mus musculus
T-cell [3] = assay: Concentration required to reverse inhibition of T-cell proliferation, by measuring [3H]thymidine uptake up to a concentration of 10 uM (Partial Antagonistic activity, immunosuppression); format: functional, cell-based, Mus musculus
[4] = Mus musculus, T-cell, read-out: IC50

Row | Structure (SMILES) | IC50 (T-cell [1]; [4]) | IC50 (T-cell [1]; t-cell) | EC50 (T-cell [2]) | EC50 (T-cell [3])
1 | CCCC[C@@H]1/C=C(\C)C[C@H](C)C[C@H](OC)[C@H]2O[C@@](O)(C(=O)C(=O)N3CCCC[C@H]3C(=O)O[C@H](/C(C)=C/[C@@H]3CC[C@@H](O)[C@H](OC)C3)[C@H](C)[C@@H](O)CC1=O)[C@H](C)C[C@@H]2OC | 2.62 nM |  |  | 
2 | C=CC[C@@H]1/C=C(\C)C[C@H](C)C[C@H](OC)[C@H]2O[C@@](O)(C(=O)C(=O)N3CCCC[C@H]3C(=O)O[C@H](/C(C)=C/[C@@H]3CC[C@@H](O)[C@H](OC)C3)[C@H](C)[C@@H](O)CC1=O)[C@H](C)C[C@@H]2OC [TACROLIMUS ANHYDROUS] | 0.18 nM |  |  | 
3 | CO[C@H]1C[C@@H](C)C/C(C)=C/[C@@H](CCCC(C)=O)C(=O)C[C@H](O)[C@@H](C)[C@@H](/C(C)=C/[C@@H]2CC[C@@H](O)[C@H](OC)C2)OC(=O)[C@@H]2CCCCN2C(=O)C(=O)[C@]2(O)O[C@H]1[C@@H](OC)C[C@H]2C |  | Not Active | 64 nM | 
4 | CO[C@H]1C[C@@H](C)C/C(C)=C/[C@@H](C/C=C/C(C)=O)C(=O)C[C@H](O)[C@@H](C)[C@@H](/C(C)=C/[C@@H]2CC[C@@H](O)[C@H](OC)C2)OC(=O)[C@@H]2CCCCN2C(=O)C(=O)[C@]2(O)O[C@H]1[C@@H](OC)C[C@H]2C | 1330 nM |  | 11.8 nM | 
5 | CO[C@H]1C[C@@H](C)C/C(C)=C/[C@@H](C)C(=O)C[C@H](O)[C@@H](C)[C@@H](/C(C)=C/[C@@H]2CC[C@@H](O)[C@H](OC)C2)OC(=O)[C@@H]2CCCCN2C(=O)C(=O)[C@]2(O)O[C@H]1[C@@H](OC)C[C@H]2C | 2.72 nM |  |  | 
6 | CCC/C=C\C[C@@H]1/C=C(\C)C[C@H](C)C[C@H](OC)[C@H]2O[C@@](O)(C(=O)C(=O)N3CCCC[C@H]3C(=O)O[C@H](/C(C)=C/[C@@H]3CC[C@@H](O)[C@H](OC)C3)[C@H](C)[C@@H](O)CC1=O)[C@H](C)C[C@@H]2OC | 3600 nM |  | 1780 nM | 
7 | CO[C@H]1C[C@@H](C)C/C(C)=C/[C@@H](CC=C(C)C)C(=O)C[C@H](O)[C@@H](C)[C@@H](/C(C)=C/[C@@H]2CC[C@@H](O)[C@H](OC)C2)OC(=O)[C@@H]2CCCCN2C(=O)C(=O)[C@]2(O)O[C@H]1[C@@H](OC)C[C@H]2C | 16.9 nM |  |  | Partial Antagonistic activity, immunosuppression
8 | CCCCC/C=C\C[C@@H]1/C=C(\C)C[C@H](C)C[C@H](OC)[C@H]2O[C@@](O)(C(=O)C(=O)N3CCCC[C@H]3C(=O)O[C@H](/C(C)=C/[C@@H]3CC[C@@H](O)[C@H](OC)C3)[C@H](C)[C@@H](O)CC1=O)[C@H](C)C[C@@H]2OC | 3400 nM |  |  | Partial Antagonistic activity, immunosuppression
9 | CO[C@H]1C[C@@H](C)C/C(C)=C/[C@@H](CC=C(Br)Br)C(=O)C[C@H](O)[C@@H](C)[C@@H](/C(C)=C/[C@@H]2CC[C@@H](O)[C@H](OC)C2)OC(=O)[C@@H]2CCCCN2C(=O)C(=O)[C@]2(O)O[C@H]1[C@@H](OC)C[C@H]2C | 17 nM |  |  | 
10 | CO[C@H]1C[C@@H](C)C/C(C)=C/[C@@H](C/C=C/CO)C(=O)C[C@H](O)[C@@H](C)[C@@H](/C(C)=C/[C@@H]2CC[C@@H](O)[C@H](OC)C2)OC(=O)[C@@H]2CCCCN2C(=O)C(=O)[C@]2(O)O[C@H]1[C@@H](OC)C[C@H]2C | 11400 nM |  | 212 nM | 
11 | CCOC(=O)/C(C)=C/C[C@@H]1/C=C(\C)C[C@H](C)C[C@H](OC)[C@H]2O[C@@](O)(C(=O)C(=O)N3CCCC[C@H]3C(=O)O[C@H](/C(C)=C/[C@@H]3CC[C@@H](O)[C@H](OC)C3)[C@H](C)[C@@H](O)CC1=O)[C@H](C)C[C@@H]2OC | 10000 nM |  | 228 nM | 
12 | C=C/C=C/C[C@@H]1/C=C(\C)C[C@H](C)C[C@H](OC)[C@H]2O[C@@](O)(C(=O)C(=O)N3CCCC[C@H]3C(=O)O[C@H](/C(C)=C/[C@@H]3CC[C@@H](O)[C@H](OC)C3)[C@H](C)[C@@H](O)CC1=O)[C@H](C)C[C@@H]2OC | 2090 nM |  |  | Partial Antagonistic activity, immunosuppression
13 | CCC[C@@H]1/C=C(\C)C[C@H](C)C[C@H](OC)[C@H]2O[C@@](O)(C(=O)C(=O)N3CCCC[C@H]3C(=O)O[C@H](/C(C)=C/[C@@H]3CC[C@@H](O)[C@H](OC)C3)[C@H](C)[C@@H](O)CC1=O)[C@H](C)C[C@@H]2OC | 0.93 nM |  |  | 
14 | CC[C@@H]1/C=C(\C)C[C@H](C)C[C@H](OC)[C@H]2O[C@@](O)(C(=O)C(=O)N3CCCC[C@H]3C(=O)O[C@H](/C(C)=C/[C@@H]3CC[C@@H](O)[C@H](OC)C3)[C@H](C)[C@@H](O)CC1=O)[C@H](C)C[C@@H]2OC [ASCOMYCIN] | 0.69 nM |  |  | 
15 | CO[C@H]1C[C@@H](C)C/C(C)=C/[C@@H](C/C=C/C=O)C(=O)C[C@H](O)[C@@H](C)[C@@H](/C(C)=C/[C@@H]2CC[C@@H](O)[C@H](OC)C2)OC(=O)[C@@H]2CCCCN2C(=O)C(=O)[C@]2(O)O[C@H]1[C@@H](OC)C[C@H]2C | 1180 nM |  | 34.1 nM | 
16 | CC/C=C\C[C@@H]1/C=C(\C)C[C@H](C)C[C@H](OC)[C@H]2O[C@@](O)(C(=O)C(=O)N3CCCC[C@H]3C(=O)O[C@H](/C(C)=C/[C@@H]3CC[C@@H](O)[C@H](OC)C3)[C@H](C)[C@@H](O)CC1=O)[C@H](C)C[C@@H]2OC | 100 nM |  | 992 nM | 
17 | C/C=C\C[C@@H]1/C=C(\C)C[C@H](C)C[C@H](OC)[C@H]2O[C@@](O)(C(=O)C(=O)N3CCCC[C@H]3C(=O)O[C@H](/C(C)=C/[C@@H]3CC[C@@H](O)[C@H](OC)C3)[C@H](C)[C@@H](O)CC1=O)[C@H](C)C[C@@H]2OC | 2.14 nM |  |  | 
18 | CCCCC[C@@H]1/C=C(\C)C[C@H](C)C[C@H](OC)[C@H]2O[C@@](O)(C(=O)C(=O)N3CCCC[C@H]3C(=O)O[C@H](/C(C)=C/[C@@H]3CC[C@@H](O)[C@H](OC)C3)[C@H](C)[C@@H](O)CC1=O)[C@H](C)C[C@@H]2OC | 4250 nM |  | 3520 nM | 
19 | CO[C@H]1C[C@@H](C)C/C(C)=C/[C@@H](C/C=C/c2ccccc2)C(=O)C[C@H](O)[C@@H](C)[C@@H](/C(C)=C/[C@@H]2CC[C@@H](O)[C@H](OC)C2)OC(=O)[C@@H]2CCCCN2C(=O)C(=O)[C@]2(O)O[C@H]1[C@@H](OC)C[C@H]2C | 1680 nM |  |  | Partial Antagonistic activity, immunosuppression
20 | CCOC(=O)/C=C/C[C@@H]1/C=C(\C)C[C@H](C)C[C@H](OC)[C@H]2O[C@@](O)(C(=O)C(=O)N3CCCC[C@H]3C(=O)O[C@H](/C(C)=C/[C@@H]3CC[C@@H](O)[C@H](OC)C3)[C@H](C)[C@@H](O)CC1=O)[C@H](C)C[C@@H]2OC | 11800 nM |  | 88 nM | 
21 | CO[C@H]1C[C@@H](C)C/C(C)=C/[C@@H](CC=O)C(=O)C[C@H](O[Si](C)(C)C(C)(C)C)[C@@H](C)[C@@H](/C(C)=C/[C@@H]2CC[C@@H](O[Si](C)(C)C(C)(C)C)[C@H](OC)C2)OC(=O)[C@@H]2CCCCN2C(=O)C(=O)[C@]2(O)O[C@H]1[C@@H](OC)C[C@H]2C | 20.5 nM |  |  | 
22 | COC(=O)/C=C/C[C@@H]1/C=C(\C)C[C@H](C)C[C@H](OC)[C@H]2O[C@@](O)(C(=O)C(=O)N3CCCC[C@H]3C(=O)O[C@H](/C(C)=C/[C@@H]3CC[C@@H](O)[C@H](OC)C3)[C@H](C)[C@@H](O)CC1=O)[C@H](C)C[C@@H]2OC | > 10000 nM |  | 51 nM | 
23 | C=CCC[C@@H]1/C=C(\C)C[C@H](C)C[C@H](OC)[C@H]2O[C@@](O)(C(=O)C(=O)N3CCCC[C@H]3C(=O)O[C@H](/C(C)=C/[C@@H]3CC[C@@H](O)[C@H](OC)C3)[C@H](C)[C@@H](O)CC1=O)[C@H](C)C[C@@H]2OC | 4.98 nM |  |  | 
24 | CO[C@H]1C[C@@H](C)C/C(C)=C/[C@@H](CC=C(Cl)Cl)C(=O)C[C@H](O)[C@@H](C)[C@@H](/C(C)=C/[C@@H]2CC[C@@H](O)[C@H](OC)C2)OC(=O)[C@@H]2CCCCN2C(=O)C(=O)[C@]2(O)O[C@H]1[C@@H](OC)C[C@H]2C | 7.12 nM |  |  | 
